Two substances from patent publication US7049292B2, “Therapeutically effective peptides related to preproinsulin” (King's College London, priority 2004, dated 2006) can be followed below.

Experiment [1] deals with pathogenic (IFN-γ) CD4+ T lymphocytes in PBMCs. As to the kind of experiment: IFN-γ ELISPOT analysis of PBMCs cultured with peptide. The format is cell-based, human. The conditions noted are these: for Prevalence of IFN-γ responses, Totals (%) / Prevalence of IFN-γ responses, Totals (responders/tested): positive response SI≧3.0; for IFN-γ response, stimulation index (SI): PBMCs, peptide 10 μM.

Experiment [2] relates to anti-inflammatory (IL-10 secreting) CD4+ T lymphocytes in PBMCs. In kind it is cell-based, human. The conditions noted are these: for IL-10 response, stimulation index (SI): PBMCs, peptide 10 μM.
The mark [3] stands for this setting: T1DM patients with HLA-DR4 alleles.
[4] abbreviates: T1DM patients with non-DR4 alleles.
Where [5] appears, read: non-diabetic control subject C9.
[6] abbreviates: patient #3, T1DM with HLA-DR4 alleles.
Where [7] appears, read: patient #24, T1DM with HLA-DR4 alleles.
[8] abbreviates: patient #27, T1DM with non-DR4 alleles.
Where [9] appears, read: non-diabetic control subject C4.

“And” between values parts separate entries of the source, which are not always exact repeats. Equal values may be shown once. Read-outs that look alike come from different tables or passages of the source.

Regarding “652–80: IA-2 peptide sequence, residues 652–80 (SRVSSVSSQFSDAAQASPSSHSSTPSWCE; UniProt Q16849 652-680, looked up, fragment)”, the “Prevalence of IFN-γ responses, Totals (%)” value in experiment [1] (setting [3]) was “(24) %”; in experiment [1] (setting [4]) it was “(9) %”; in experiment [1] (non-diabetic control subjects), “(7) %”. The figures for the “Prevalence of IFN-γ responses, Totals (responders/tested)” value in experiment [1] (setting [3]), in experiment [1] (setting [4]) and in experiment [1] (non-diabetic control subjects) were 6/25, 1/11 and 1/14, respectively. The “IFN-γ response, stimulation index (SI)” value in experiment [1] (setting [5]) is reported as 3.8; in experiment [1] (patient #2, T1DM with HLA-DR4 alleles) it was 3.1; in experiment [1] (setting [6]) it was 3.0; in experiment [1] (patient #5, T1DM with HLA-DR4 alleles) it was 6.2; in experiment [1] (patient #6, T1DM with HLA-DR4 alleles) it was 23.2; in experiment [1] (patient #7, T1DM with HLA-DR4 alleles), 6.4. The figures for the “IFN-γ response, stimulation index (SI)” value in experiment [1] (setting [7]) and in experiment [1] (setting [8]) were 36.0 and 16.7, respectively. The “Prevalence of IL-10 responses, Totals (responders/tested)” value in experiment [2] was 2/17 and 1/7 and 4/14. Further, the “IL-10 response, stimulation index (SI)” value came to 5.3 in experiment [2] (setting [9]); 4.0 in experiment [2] (non-diabetic control subject C8); 3.5 in experiment [2] (setting [5]); 8.4 in experiment [2] (non-diabetic control subject C10); 4.8 in experiment [2] (setting [6]); 4.5 in experiment [2] (setting [7]). Further, the “IL-10 response, stimulation index (SI)” value in experiment [2] (patient #35, T1DM with non-DR4 alleles) is 8.0.
On to “793–817: IA-2 peptide sequence, residues 793–817 (DFWQMVWESGCTVIVMLTPLVEDGV; UniProt Q16849 793-817, looked up, fragment)”, for which the figures for the “Prevalence of IFN-γ responses, Totals (%)” value in experiment [1] (setting [3]), in experiment [1] (setting [4]) and in experiment [1] (non-diabetic control subjects) were “(12) %”, “(0) %” and “(0) %”, respectively. The “Prevalence of IFN-γ responses, Totals (responders/tested)” value in experiment [1] (setting [3]) is 3/25; in experiment [1] (setting [4]), 0/11; in experiment [1] (non-diabetic control subjects) it was 0/14. Moreover, the “IFN-γ response, stimulation index (SI)” value in experiment [1] (setting [6]) came out at 9.7; in experiment [1] (patient #4, T1DM with HLA-DR4 alleles) it was 3.5; in experiment [1] (patient #13, T1DM with HLA-DR4 alleles) it was 4.1; in experiment [1] (patient #19, T1DM with HLA-DR4 alleles), 19.0. Further, the “Prevalence of IL-10 responses, Totals (responders/tested)” value in experiment [2] is 1/17 and 1/7 and 2/14. For the same substance, the “IL-10 response, stimulation index (SI)” value in experiment [2] (setting [9]) is listed as 3.4; in experiment [2] (non-diabetic control subject C13), 3.5; in experiment [2] (setting [6]), 3.0; in experiment [2] (setting [8]), 34.0.
